{
  "source": "patent US5698550A",
  "about": "“Tetralin and chroman derivatives useful in the treatment of asthma, arthritis and related diseases” (Pfizer Inc., priority 1993, dated 1997)",
  "test_system": "PAF-induced lethality in CD1 male mice",
  "assay": "PAF lethality assay",
  "assay_type": "in vivo",
  "details": "Mus musculus; positive control; oral dosing 45 minutes before i.v. PAF injection; mortality compared to controls; read-out: approximate ED 50",
  "experimental": "To evaluate the compounds of the formula (I) in vivo, they are tested by the so-called PAF lethality assay procedure:\nMice: CD1 males, all approximately the same weight (approximately 26 grams), 12 per group.\nVehicle for oral drug dosing: EES (5% ethanol, 5% emulphor, 90% saline). Stored at room temperature.\nDrugs: For routine screening at 50 mg/kg, 20 mg drug is dissolved in 4 ml EES, using sonication in a sonicator bath or grinding in a Ten Broeck grinder to dissolve drug if necessary. If solubility is still a problem, the drug is used as a suspension.\nVehicle for i.v. Injection: Saline with 2.5 mg/ml Bovine Serum Albumin (BSA, Sigma #A4378) and 0.05 mg/ml Propranolol (Sigma #P0884). Prepared fresh daily and kept at room temperature.\nPlatelet Activating Factor (PAF): A […] stock solution is prepared by dissolving 1 mg PAF (Calbiochem #429460) in 0.18 ml ethanol. This is stored at -20° C. and is diluted in vehicle (see above) the day of use. The concentration of PAF used is calibrated so that when injected at 0.1 ml/10 grams body weight, it will kill approximately 80% of untreated controls. This is usually about […] (a 1 to 2034 dilution from stock). […]\n45 minutes before PAF injection, mice are treated orally with drug using 0.1 ml/10 grams body weight. […] Results are expressed as percent mortality as compared to controls. […]",
  "data": [
    {"smiles": "O=C1CCN(c2ccccc2)N1", "note": "[Phenidone]", "values": [
      {"measurement": "ED50", "result": "~25", "unit": "mg/kg"}
    ]}
  ]
}
